{
  "source": "patent US20250281507A1",
  "about": "“METHODS OF TREATING NEPHROTIC SYNDROME” (The Research Institute at Nationwide Children's Hospital, priority 2021, published 2025)",
  "key": {"children with NS [1]": {"system": "children with NS", "experiment": "Hospitalizations, edema, hypoglycemia and side effects on pioglitazone", "assay_type": "in vivo, human", "source_text": "(§1) In the following clinical studies, the efficacy and safety of adding pioglitazone to reduce proteinuria in children with NS was examined. All children with NS identified worldwide to have been treated with pioglitazone were included, with no patients excluded. Each patient had pioglitazone added to their other NS medications at the discretion of their treating pediatric nephrologist. All patient records were reviewed in a de-identified manner, with prior ethics committee approval at each institution. Data were analyzed based on defined time periods before and after the addition of pioglitazone. Patients were defined as having responded to pioglitazone (i.e., Responders) if their urine protein to creatinine ratio (UPCR, mg/mg) decreased from the period 0-1 month pre-pioglitazone to the period 0-1 month post-pioglitazone. Glomerular filtration rate estimation (eGFR) in patients <18 years was calculated using the revised Schwartz equation. In patients >18 years, eGFR was calculated as the mean of the revised Schwartz and CKD-EPI creatinine equations. Quantitative data, such as patient age, duration of NS, pioglitazone dosage, and outcomes of UPCR, TIS, and serum albumin, were summarized as means (standard errors of mean), while categorical data such as renal survival status were summarized as frequency (percent). Due to a small sample size, Responders and Non-responders were compared using Wilcoxon Rank Sum tests on quantitative variables and Fisher's exact tests on categorical variables. For both Responders and Non-responders, pre-pioglitazone to post-pioglitazone initiation changes in UPCR, TIS, and serum albumin levels were analyzed using Wilcoxon Signed Rank tests. Numbers of hospitalizations pre-pioglitazone and post-pioglitazone initiation were analyzed and compared using Poisson distributions. Statistical significance was assessed at both the 0.05 and 0.10 levels. All analyses were conducted using SPSS software ver. 26 (IBM, Armonk, NY, USA)."}, "children with NS [2]": {"system": "children with NS", "experiment": "Serum albumin before and after addition of pioglitazone", "assay_type": "in vivo, human", "conditions": "for % S Alb increase (0-1 mo) / % S Alb increase (5-7 mo): vs 0-1 mo pre-PIO; for serum albumin increase, range / mean serum albumin: Responders; for mean serum albumin: pre 2.5 g/dL", "source_text": "as §1"}, "[3]": {"conditions": "Patient 1 (Responder), pre-PIO 2.5"}, "[4]": {"conditions": "Patient 2 (Responder), pre-PIO 2.4"}, "[5]": {"conditions": "Patient 3 (Responder), pre-PIO 1.7"}, "[6]": {"conditions": "Patient 5 (Non-responder), pre-PIO 4.4"}, "[7]": {"conditions": "Patient 6 (Responder), pre-PIO 4.5"}, "[8]": {"conditions": "Patient 7 (Non-responder), pre-PIO 2.9"}, "[9]": {"conditions": "Patient 8 (Responder), pre-PIO 1.2"}, "[10]": {"conditions": "mean of 5 Responders, pre-PIO 2.46"}},
  "note": "Several values for one entry are separate records, joined by “and”; a condition that tells them apart may be missing. Identical values can stand only once.",
  "data": [
    {"smiles": "CCc1ccc(CCOc2ccc(CC3SC(=O)NC3=O)cc2)nc1", "note": "(centres unmarked) [pioglitazone]", "values": [
      {"measurement": "required hospitalizations", "setting": "children with NS [1]; 5 Responders, post-pioglitazone, 11 pre-pioglitazone", "value": "none"},
      {"measurement": "side effects attributable to pioglitazone", "setting": "children with NS [1]; Patient 1, 7-month PIO treatment, 15 then 30 mg QD", "value": "No side effects attributable to pioglitazone were noted"},
      {"measurement": "side effects attributable to pioglitazone", "setting": "children with NS [1]; Patient 2, 4-month treatment, 15 mg QD", "value": "no side effects attributable to pioglitazone noted"},
      {"measurement": "side effects attributable to pioglitazone", "setting": "children with NS [1]; Patient 3, 19-month course", "value": "No side effects attributable to pioglitazone were noted"},
      {"measurement": "side effects attributable to pioglitazone", "setting": "children with NS [1]; Patient 4, 3 weeks of treatment, 7.5 mg QD", "value": "no side effects attributable to pioglitazone were noted"},
      {"measurement": "side effects attributable to pioglitazone", "setting": "children with NS [1]; Patient 5, 2.5 years, 45 mg QD", "value": "No side effects attributable to pioglitazone were noted"},
      {"measurement": "side effects attributable to pioglitazone", "setting": "children with NS [1]; Patient 6, 5-year course, 30 mg QD", "value": "No side effects attributable to pioglitazone were noted"},
      {"measurement": "side effects (reason for stopping pioglitazone)", "setting": "children with NS [1]; Patient 7, 6 months, 15 then 30 mg QD", "value": "concerns of possible association with new-onset bruising, which resolved"},
      {"measurement": "side effects attributable to pioglitazone", "setting": "children with NS [1]; Patient 8, 30-week course, 30 mg QD", "value": "No side effects attributable to pioglitazone were noted"},
      {"measurement": "reductions in hospitalizations for IV albumin infusions and diuresis", "setting": "children with NS [1]; Responders", "value": 100, "unit": "%"},
      {"measurement": "children with worsening edema after pioglitazone introduction", "setting": "children with NS [1]; all 8 patients", "value": 0, "unit": "%"},
      {"measurement": "hospitalizations for IV albumin infusions to manage NS-related edema", "setting": "children with NS [1]; all 8 patients, 5-7 months post-pioglitazone, 13 in the 5-7 months pre-pioglitazone", "value": 1},
      {"measurement": "adverse events attributable to pioglitazone", "setting": "children with NS [1]; all patients, collective 136 months of drug exposure", "value": "no patients experienced any adverse events attributable to pioglitazone"},
      {"measurement": "pioglitazone-related hypoglycemia", "setting": "children with NS [1]; all patients, observation period", "value": "no children with NS were noted to have pioglitazone-related hypoglycemia"},
      {"measurement": "Post-PIO S Alb (0-1 mo; g/dL)", "setting": "children with NS [2]; [3]", "value": 2.9, "unit": "g/dL"},
      {"measurement": "Post-PIO S Alb (5-7 mo; g/dL)", "setting": "children with NS [2]; [3]", "value": 3.5, "unit": "g/dL"},
      {"measurement": "% S Alb increase (0-1 mo)", "setting": "children with NS [2]; Patient 1 (Responder)", "value": 16.0, "unit": "%"},
      {"measurement": "% S Alb increase (5-7 mo)", "setting": "children with NS [2]; Patient 1 (Responder)", "value": 40.0, "unit": "%"},
      {"measurement": "Post-PIO S Alb (0-1 mo; g/dL)", "setting": "children with NS [2]; [4]", "value": 3, "unit": "g/dL"},
      {"measurement": "Post-PIO S Alb (5-7 mo; g/dL)", "setting": "children with NS [2]; [4]", "value": 3.5, "unit": "g/dL"},
      {"measurement": "% S Alb increase (0-1 mo)", "setting": "children with NS [2]; Patient 2 (Responder)", "value": 25.0, "unit": "%"},
      {"measurement": "% S Alb increase (5-7 mo)", "setting": "children with NS [2]; Patient 2 (Responder)", "value": 45.8, "unit": "%"},
      {"measurement": "Post-PIO S Alb (0-1 mo; g/dL)", "setting": "children with NS [2]; [5]", "value": 2.3, "unit": "g/dL"},
      {"measurement": "Post-PIO S Alb (5-7 mo; g/dL)", "setting": "children with NS [2]; [5]", "value": 3.7, "unit": "g/dL"},
      {"measurement": "% S Alb increase (0-1 mo)", "setting": "children with NS [2]; Patient 3 (Responder)", "value": 35.3, "unit": "%"},
      {"measurement": "% S Alb increase (5-7 mo)", "setting": "children with NS [2]; Patient 3 (Responder)", "value": 118, "unit": "%"},
      {"measurement": "Post-PIO S Alb (0-1 mo; g/dL)", "setting": "children with NS [2]; Patient 4 (Non-responder), pre-PIO 1.6, increase attributed to declining kidney function", "value": 2.7, "unit": "g/dL"},
      {"measurement": "% S Alb increase (0-1 mo)", "setting": "children with NS [2]; Patient 4 (Non-responder)", "value": 68.8, "unit": "%"},
      {"measurement": "Post-PIO S Alb (0-1 mo; g/dL)", "setting": "children with NS [2]; [6]", "value": 4.1, "unit": "g/dL"},
      {"measurement": "Post-PIO S Alb (5-7 mo; g/dL)", "setting": "children with NS [2]; [6]", "value": 4.3, "unit": "g/dL"},
      {"measurement": "% S Alb increase (0-1 mo)", "setting": "children with NS [2]; Patient 5 (Non-responder)", "value": "−6.82", "unit": "%"},
      {"measurement": "% S Alb increase (5-7 mo)", "setting": "children with NS [2]; Patient 5 (Non-responder)", "value": "−2.27", "unit": "%"},
      {"measurement": "Post-PIO S Alb (0-1 mo; g/dL)", "setting": "children with NS [2]; [7]", "value": 4.1, "unit": "g/dL"},
      {"measurement": "Post-PIO S Alb (5-7 mo; g/dL)", "setting": "children with NS [2]; [7]", "value": 4.4, "unit": "g/dL"},
      {"measurement": "% S Alb increase (0-1 mo)", "setting": "children with NS [2]; Patient 6 (Responder)", "value": "−8.89", "unit": "%"},
      {"measurement": "% S Alb increase (5-7 mo)", "setting": "children with NS [2]; Patient 6 (Responder)", "value": "−2.22", "unit": "%"},
      {"measurement": "Post-PIO S Alb (0-1 mo; g/dL)", "setting": "children with NS [2]; [8]", "value": 2.8, "unit": "g/dL"},
      {"measurement": "Post-PIO S Alb (5-7 mo; g/dL)", "setting": "children with NS [2]; [8]", "value": 3.1, "unit": "g/dL"},
      {"measurement": "% S Alb increase (0-1 mo)", "setting": "children with NS [2]; Patient 7 (Non-responder)", "value": "−3.45", "unit": "%"},
      {"measurement": "% S Alb increase (5-7 mo)", "setting": "children with NS [2]; Patient 7 (Non-responder)", "value": 6.90, "unit": "%"},
      {"measurement": "Post-PIO S Alb (0-1 mo; g/dL)", "setting": "children with NS [2]; [9]", "value": 3.1, "unit": "g/dL"},
      {"measurement": "Post-PIO S Alb (5-7 mo; g/dL)", "setting": "children with NS [2]; [9]", "value": 3.4, "unit": "g/dL"},
      {"measurement": "% S Alb increase (0-1 mo)", "setting": "children with NS [2]; Patient 8 (Responder)", "value": 158, "unit": "%"},
      {"measurement": "% S Alb increase (5-7 mo)", "setting": "children with NS [2]; Patient 8 (Responder)", "value": 183, "unit": "%"},
      {"measurement": "serum albumin increase, range", "setting": "children with NS [2]; 0-1 month post-pioglitazone", "value": "−9-158%"},
      {"measurement": "mean serum albumin", "setting": "children with NS [2]; 0-1 month post-pioglitazone", "value": 3.1, "unit": "g/dL"},
      {"measurement": "serum albumin increase, range", "setting": "children with NS [2]; 5-7 months post-pioglitazone", "value": "−2-183%"},
      {"measurement": "mean serum albumin", "setting": "children with NS [2]; 5-7 months post-pioglitazone", "value": 3.7, "unit": "g/dL"},
      {"measurement": "% S Alb increase (0-1 mo), Mean (SEM)", "setting": "children with NS [2]; mean of 5 Responders", "value": "45% and 45.2%"},
      {"measurement": "% S Alb increase (5-7 mo), Mean (SEM)", "setting": "children with NS [2]; mean of 5 Responders", "value": "77% and 76.9%"},
      {"measurement": "Post-PIO S Alb (0-1 mo; g/dL), Mean (SEM)", "setting": "children with NS [2]; [10]", "value": 3.08, "unit": "g/dL"},
      {"measurement": "Post-PIO S Alb (5-7 mo; g/dL), Mean (SEM)", "setting": "children with NS [2]; [10]", "value": 3.7, "unit": "g/dL"},
      {"measurement": "% S Alb increase (0-1 mo), Mean (SEM)", "setting": "children with NS [2]; mean of Non-responders", "value": 19.5, "unit": "%"},
      {"measurement": "Post-PIO S Alb (5-7 mo; g/dL), Mean (SEM)", "setting": "children with NS [2]; mean of Non-responders (Patient 4 ESRD)", "value": 3.7, "unit": "g/dL"},
      {"measurement": "% S Alb increase (5-7 mo), Mean (SEM)", "setting": "children with NS [2]; mean of Non-responders (without Patient 4)", "value": 2.31, "unit": "%"},
      {"measurement": "Post-PIO S Alb (0-1 mo; g/dL), Mean (SEM)", "setting": "children with NS [2]; mean of Non-responders, pre-PIO 2.97", "value": 3.2, "unit": "g/dL"}
    ]}
  ]
}
